For 9 compounds, IC50 results are on record in patent US20250270209A1 (INTERLINE THERAPEUTICS, INC., priority 2022, published 2025).

The structures appear in SMILES notation.

In one test the target is LRRK2 wild type enzyme (Homo sapiens, UniProt Q5S007). Kind of test: Biochemical Assay: LRRK2 TR-FRET (LanthaScreen) kinase assay with LRRKtide substrate. The note with it: LRRK2 Inhibition, Table 8. As for the experimental part: 10 mM compound solution was prepared in DMSO. An 11-point, 3-fold dilution was performed, with highest concentration at 10 μM. A 10 mM compound DMSO solution was added to Labcyte LDV plate and the compound concentration of source plate was 10 mM. The 1st compound concentration of Inter plate(Labcyte 384 well PP plate) was 4.938×10^−1 mM which was prepared by transferring 1.5 μL of 10 mM compound from source plate to 28.9 μL DMSO. The 2nd compound concentration of Inter plate was 1.829×10^−2 mM which was prepared by transferring 60 nL of 10 mM compound from source plate to 32.7 μL DMSO. The 3rd compound concentration of Inter plate was 6.774×10^−4 mM which was prepared by transferring 2.5 nL of 10 mM compound from source plate to 36.9 μL DMSO. 100 nL of reference compound was dispensed in column 1 for low control wells and 100 nL of DMSO in column 24 for high control wells. Compounds were dispensed to column 2 to 23 of assay plate and backfilled with DMSO to a total volume of 100 nL.
Sequence of LRRK2 wild type enzyme (Q5S007 whole entry): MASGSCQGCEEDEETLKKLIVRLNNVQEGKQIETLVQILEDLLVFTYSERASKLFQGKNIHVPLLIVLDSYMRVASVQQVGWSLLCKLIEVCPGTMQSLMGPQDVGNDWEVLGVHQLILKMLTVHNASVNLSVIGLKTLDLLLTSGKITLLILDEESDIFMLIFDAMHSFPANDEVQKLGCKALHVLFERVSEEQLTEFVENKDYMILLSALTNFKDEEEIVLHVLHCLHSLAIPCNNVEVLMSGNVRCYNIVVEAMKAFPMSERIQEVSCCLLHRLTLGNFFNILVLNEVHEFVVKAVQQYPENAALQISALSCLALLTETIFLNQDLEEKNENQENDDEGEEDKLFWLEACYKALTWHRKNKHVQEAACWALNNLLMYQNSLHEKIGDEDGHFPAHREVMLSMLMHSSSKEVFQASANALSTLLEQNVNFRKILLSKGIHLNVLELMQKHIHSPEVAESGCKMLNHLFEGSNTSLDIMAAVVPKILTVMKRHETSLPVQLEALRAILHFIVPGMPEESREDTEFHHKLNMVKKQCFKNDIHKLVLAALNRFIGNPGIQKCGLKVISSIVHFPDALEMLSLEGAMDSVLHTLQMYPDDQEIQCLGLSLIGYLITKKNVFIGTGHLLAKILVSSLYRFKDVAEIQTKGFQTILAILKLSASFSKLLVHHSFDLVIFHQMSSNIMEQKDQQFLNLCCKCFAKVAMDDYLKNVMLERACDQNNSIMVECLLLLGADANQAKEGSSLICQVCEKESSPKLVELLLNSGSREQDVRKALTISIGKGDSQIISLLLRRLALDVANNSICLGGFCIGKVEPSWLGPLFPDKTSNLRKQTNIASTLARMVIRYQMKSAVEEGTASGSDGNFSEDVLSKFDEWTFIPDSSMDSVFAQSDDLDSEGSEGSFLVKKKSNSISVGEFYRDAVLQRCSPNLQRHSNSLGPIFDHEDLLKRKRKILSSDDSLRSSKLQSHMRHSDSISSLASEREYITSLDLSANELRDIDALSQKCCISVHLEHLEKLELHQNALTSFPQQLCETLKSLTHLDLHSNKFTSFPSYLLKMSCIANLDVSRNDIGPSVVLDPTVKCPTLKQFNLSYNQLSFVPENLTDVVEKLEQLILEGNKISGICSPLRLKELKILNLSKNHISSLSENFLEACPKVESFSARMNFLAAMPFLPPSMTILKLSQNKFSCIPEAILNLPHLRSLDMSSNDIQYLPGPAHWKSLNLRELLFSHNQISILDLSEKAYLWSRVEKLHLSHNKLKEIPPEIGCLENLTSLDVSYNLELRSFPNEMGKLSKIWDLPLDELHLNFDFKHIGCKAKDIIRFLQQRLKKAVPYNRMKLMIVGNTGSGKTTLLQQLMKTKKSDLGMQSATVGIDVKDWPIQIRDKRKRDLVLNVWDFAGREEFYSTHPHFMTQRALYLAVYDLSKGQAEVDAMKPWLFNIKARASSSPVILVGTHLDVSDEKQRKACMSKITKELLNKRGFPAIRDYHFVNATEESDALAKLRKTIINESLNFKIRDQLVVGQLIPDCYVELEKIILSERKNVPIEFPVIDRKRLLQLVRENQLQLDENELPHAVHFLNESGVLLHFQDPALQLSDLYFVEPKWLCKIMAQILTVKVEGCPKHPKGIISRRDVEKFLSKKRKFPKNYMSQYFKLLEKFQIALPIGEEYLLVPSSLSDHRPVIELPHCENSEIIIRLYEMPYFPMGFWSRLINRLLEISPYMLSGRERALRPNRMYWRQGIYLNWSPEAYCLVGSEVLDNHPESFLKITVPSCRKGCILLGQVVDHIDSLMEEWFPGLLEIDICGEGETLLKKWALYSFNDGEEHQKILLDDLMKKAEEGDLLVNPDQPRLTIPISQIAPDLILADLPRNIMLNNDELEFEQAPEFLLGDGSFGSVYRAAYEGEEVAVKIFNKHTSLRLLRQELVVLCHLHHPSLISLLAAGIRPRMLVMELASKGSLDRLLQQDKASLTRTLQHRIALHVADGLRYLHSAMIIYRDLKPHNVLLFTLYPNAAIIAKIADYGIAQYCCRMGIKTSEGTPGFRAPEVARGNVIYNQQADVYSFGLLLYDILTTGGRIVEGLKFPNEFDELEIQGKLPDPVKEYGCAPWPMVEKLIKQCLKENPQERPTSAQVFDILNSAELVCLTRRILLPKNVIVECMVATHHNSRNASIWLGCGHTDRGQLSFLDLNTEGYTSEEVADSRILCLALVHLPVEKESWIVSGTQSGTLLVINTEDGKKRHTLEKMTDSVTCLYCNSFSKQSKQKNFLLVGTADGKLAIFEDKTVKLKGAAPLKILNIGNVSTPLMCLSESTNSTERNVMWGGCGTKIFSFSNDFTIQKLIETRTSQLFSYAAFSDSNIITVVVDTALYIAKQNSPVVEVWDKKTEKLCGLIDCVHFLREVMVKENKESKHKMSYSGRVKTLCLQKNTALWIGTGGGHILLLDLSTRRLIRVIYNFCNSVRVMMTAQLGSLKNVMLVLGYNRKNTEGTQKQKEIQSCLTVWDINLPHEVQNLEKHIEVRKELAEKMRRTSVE
A 2X LRRK2 enzyme solution (final concentration 3 nM) was prepared in assay buffer (Tris-HCl pH8.0:50 mM, MgCl2: 5 mM, EDTA: 1 mM, Brij-35:0.01%, 2 mM DTT). A 2× substrate solution was prepared: LRRK2 tide substrate (final concentration 400 nM) and ATP (final concentration 25 μM) in assay buffer. 5 μL 2× LRRK2 enzyme solution was dispensed to each well in assay plate by Multidrop. Assay plate was spun at 1,000 rpm for 1 min and incubated for 15 min at 23° C. 5 μL 2× ATP/LRRKtide solution was dispensed to each well in assay plate by Multidrop. Assay plate was spun at 1,000 rpm for 1 min and incubated for 120 min at 23° C.
(§1) A 2× detection solution was prepared: Tb-pERM (pLRRKtide) antibody (final concentration 0.25 nM) and EDTA (final concentration 10 mM) in TR-FRET dilution buffer. 10 μL 2× detection solution was dispensed to each well in assay plate to stop kinase reaction by Multidrop. Assay plate was spun at 1,000 rpm for 1 min and incubate for 30 min at 23° C. Assay plate was then read on Envision configured for LanthaScreen® TR-FRET. pS935 LRRK2 Cell Assay

The target of test [1] is T1, wild type LRRK2 overexpressed in recombinant HEK-293T cells (Homo sapiens, UniProt Q5S007).
T1 construct: host or cells: HEK293T (transient transfection with pCMV-LRRK2 WT plasmid)
T1 sequence (Q5S007 whole entry): as above
In words: pS935 LRRK2 Cell Assay (HTRF, phospho-LRRK2 Ser935). Type of test: cell-based. The note with it: LRRK2 Inhibition, Table 8, 2 hours compound incubation. As for the experimental part: as §1
The following protocol describes an in-vitro method for measuring phosphorylation at Ser935 on wild type LRRK2 overexpressed in recombinant HEK-293T cells. The method is based on HTRF technology, which combines Fluorescence Resonance Energy Transfer (FRET) with Time-Resolved measurement (TR). Phospho-LRRK2 (Ser935) is detected in a sandwich assay format using two different specific antibodies, one labelled with Eu3+-Cryptate (donor) and the second with d2(acceptor).When the fluorophores are in close proximity, excitation of the donor with a light source (flash lamp) stimulates FRET to the acceptor, which in turn fluoresces at a specific wavelength (665 nm). The fluorescence emission at 615 nm from the donor is also measured to allow ratiometric reduction of data. The specific signal is proportional to phospho-LRRK2 (Ser935).
Plasmid transient transfection: DMEM medium, FBS, DPBS, Trans-IT, OPTI-MEM reagents were allowed to warm to room temperature. HEK293T cells were cultured in DMEM +10% FBS complete medium in T150 flasks till around 80% confluency before transfection. Then cells were washed with 10 mL PBS and detached with 3 mL 0.25% typinsin. 30×10E6 HEK293T cells were seeded in DMEM +10% FBS complete medium to a 15 cm dish.
DNA, TransIT-LT1, OPTI-MEM complex were prepared: […] OPTI-MEM was added to a 15 mL cone tube, then […] plasmid was added to OPTI-MEM and mixed, followed by addition of 60 μL TransIT-LT1 to the plasmid OPTI-MEM mixture and mixing. The resulting mixture was incubated for 15 minutes.
The above plasmid, DNA and OPTI-MEM mixture was added dropwise to the 15 cm dish, ensuring the drops were evenly distributed. The culture dish was gently rocked back and forth and from left to right to evenly distribute the complex. The tranfected dish was incubated for 24 hours at 37° C., and 5% CO2.
Transfected HEK293T was collected in the 15 cm dish. Media was aspirated from tissue culture dish, and washed by dispensing 10 mL 1× DPBS into 15 cm dish. 1× DPBS was aspirated and 3 mL trypsin was dispensed to 15 cm dish. The dish was incubated with trypsin at room temperature for 3 min until the cells were detached. 10 mL of DMEM +10% FBS medium were added to 15 cm dish and triturated to ensure homogenous cell suspensions.
Homogenous cell suspensions were transferred to a 50 mL tube, and centrifuged for 5 minutes at 1,000 rmp/min. The supernatant was aspirated and resuspended with 20 mL complete medium. 1 mL of cell suspension was transferred for cell counting. The cell suspension was diluted to 2× 10E5 cells/ml. 50 μL cell suspensions were added to a 384-well plate. The plate was quick spun at 800 rpm for 1 minute, then incubate overnight at 37° C., 5% CO2.
Compound dispensing: compound was diluted (10 mM DMSO stock solution) and added to assay plate (top concentration: 10 μM, 3 fold serial dilution, 9 doses) with duplicates by Tecan liquid handler. The DMSO concentration of each well was normalized to 0.2%. Plates were quick spun at 1,000 rpm for 1 minute. Plates were incubated at 37° C., 5% CO2 for 2 hours.
1× lysis buffer solution supplemented with blocking reagent was prepared (e.g. 1 mL lysis buffer 4X+3 mL water+40 μL stock blocking reagent 100X). Antibodies working solution was prepared by diluting 40-fold d2 and Cryptate antibodies with detection buffer(e.g. 1520 μL detection buffer+40 μL d2-antibody stock solution+[…] Cryptate-antibody stock solution).
After 2 hours incubation, cell plates were taken out from the incubator. […]
In general terms: Time-resolved FRET reads energy transfer from a long-lived donor to a nearby acceptor.

By IC50 is commonly meant the concentration that inhibits the measured activity by half. For `C[C@@H]1C[C@H](n2c(CC(=O)Nc3cnn(C)c3)nc3cnc4ccc(C#N)cc4c32)CCO1` [Compound 88, 2-{8-cyano-1-[(2R,4R)-2-methyloxan-4-yl]-1H-imidazo[4,5-c]quinolin-2-yl}-N-(1-methyl-1H-pyrazol-4-yl)acetamide], the IC50 was determined as 0.457 nM on LRRK2 wild type enzyme and 24.4 nM in test [1].

Turning to `C[C@@H]1C[C@H](n2c(CC(=O)NC3(c4ncccn4)CC3)nc3cnc4ccc(C#N)cc4c32)CCO1` [Compound 360, N-[1-(2-pyrimidinyl)cyclopropyl]{3-[(2R,4R)-2-methyltetrahydro-2H-pyran-4-yl]-12-cyano-3,5,8-triazatricyclo[7.4.0.0^2,6]trideca-1,4,6,8,10,12-hexaen-4-yl}acetamide], the IC50 at LRRK2 wild type enzyme was 1.24 nM; in test [1], 104 nM.

For the compound `COc1nccnc1NC(=O)Cc1nc2cnc3ccc(C#N)cc3c2n1[C@@H]1CCO[C@H](C)C1` [Compound 312, N-(3-methoxy-2-pyrazinyl){3-[(2R,4R)-2-methyltetrahydro-2H-pyran-4-yl]-12-cyano-3,5,8-triazatricyclo[7.4.0.0^2,6]trideca-1(9),2(6),4,7,10,12-hexaen-4-yl}acetamide], the IC50 was 0.574 nM against LRRK2 wild type enzyme and 5.68 nM in test [1].

Consider `C[C@@H]1C[C@H](n2c([C@@H]3CCC(=O)N3)nc3cnc4ccc(C#N)cc4c32)CCO1` [Compound 71, 1-[(2R,4R)-2-methyloxan-4-yl]-2-[(2S)-5-oxopyrrolidin-2-yl]-1H-imidazo[4,5-c]quinoline-8-carbonitrile], for which the concentration for half-maximal inhibition (IC50) against LRRK2 wild type enzyme came out at 5.49 nM; in test [1], 4790 nM.

For the compound `Cc1oncc1CNC(=O)Cc1nc2cnc3ccc(C#N)cc3c2n1[C@@H]1CCO[C@H](C)C1` [Compound 179, 2-(8-cyano-1-((2R,4R)-2-methyltetrahydro-2H-pyran-4-yl)-1H-imidazo[4,5-c]quinolin-2-yl)-N-((5-methylisoxazol-4-yl)methyl)acetamide], the half-maximal inhibitory concentration (IC50) was found to be 0.337 nM on LRRK2 wild type enzyme and 17.1 nM in test [1].

Regarding `Cc1ccncc1NC(=O)Cc1nc2cnc3ccc(C#N)cc3c2n1[C@@H]1CCO[C@H](C)C1` [Compound 292, N-(4-methyl-3-pyridyl){3-[(2R,4R)-2-methyltetrahydro-2H-pyran-4-yl]-12-cyano-3,5,8-triazatricyclo[7.4.0.0^2,6]trideca-1,4,6,8,10,12-hexaen-4-yl}acetamide], the IC50 stood at 0.473 nM against LRRK2 wild type enzyme and 8.23 nM in test [1].

With `COc1ncccc1NC(=O)Cc1nc2cnc3ccc(C#N)cc3c2n1[C@@H]1CCO[C@H](C)C1` [Compound 318, N-(2-methoxy-3-pyridyl){3-[(2R,4R)-2-methyltetrahydro-2H-pyran-4-yl]-12-cyano-3,5,8-triazatricyclo[7.4.0.0^2,6]trideca-1(9),2(6),4,7,10,12-hexaen-4-yl}acetamide], the IC50 stood at 0.499 nM against LRRK2 wild type enzyme and 2.04 nM in test [1].

As to `C[C@@H]1C[C@H](n2c(CC(=O)NC3CC3)nc3cnc4ccc(C(F)(F)F)cc4c32)CCO1` [Compound 327, N-cyclopropyl{3-[(2R,4R)-2-methyltetrahydro-2H-pyran-4-yl]-12-(trifluoromethyl)-3,5,8-triazatricyclo[7.4.0.0^2,6]trideca-1,4,6,8,10,12-hexaen-4-yl}acetamide], the figures for the IC50 (at LRRK2 wild type enzyme; in test [1]) were 1.41 nM and 43.1 nM, respectively.

For `COCC1(CNC(=O)Cc2nc3cnc4ccc(C#N)cc4c3n2[C@@H]2CCO[C@H](C)C2)CC1` [Compound 267, N-[1-(methoxymethyl)cyclopropyl]methyl{3-[(2R,4R)-2-methyltetrahydro-2H-pyran-4-yl]-12-cyano-3,5,8-triazatricyclo[7.4.0.0^2,6]trideca-1,4,6,8,10,12-hexaen-4-yl}acetamide], the IC50 turned out to be 0.419 nM at LRRK2 wild type enzyme and 7.51 nM in test [1].
